For the assay, the target named is T1, rHPLOE (recombinant hemolymph plasma lectin).
T1 construct: gene hpl; E. coli codon-optimised synthetic gene hplOE in pET-23a(+), BL21(DE3) with chaperones (pG-KJE8); His-tag kept; HisTrap purified
Briefly: competitive ELISA against coated PA14 biofilm extract. The note with it: 0.1 uM rHPLOE; 37 °C, 1 h; competitor of binding to cell-free P. aeruginosa PA14 biofilm; one-site Ki fit. On the set-up: species or system Tachypleus tridentatus. An excerpt:
competitive ELISA against coated PA14 biofilm extract on rHPLOE (recombinant hemolymph plasma lectin) | The inhibitory constant (Ki) of L-rhamnose to rHPLOE interaction with the biofilm

Molecules are shown by their SMILES.

Ki data for one compound are collected here from paper PMC6628293, “Rhamnose Binding Protein as an Anti-Bacterial Agent—Targeting Biofilm of Pseudomonas aeruginosa” (Marine Drugs, 2019).

For the compound `C[C@@H]1OC(O)[C@H](O)[C@H](O)[C@H]1O` (stereo partly drawn) [L-rhamnose], the Ki turned out to be 98 mM.
